Source: patent US20220031596A1, “ANTI-AGING AGENT AND ANTI-AGING METHOD” (priority 2018, published 2022)

Assays:
[1] = tested on: melatonin concentration in the plasma; test: Evaluation of melatonin secretion promoting effect (plasma melatonin, 24-week oral ingestion); type: in vivo, human; details: for melatonin concentration in the plasma, 0 weeks (before ingestion): baseline; for melatonin concentration in the plasma, 0 weeks (before ingestion) / melatonin concentration in the plasma, 24 weeks (after ingestion) / melatonin concentration in the plasma, Change rate (24 weeks - 0 weeks): mean±SD
Description: In order to confirm a change in the melatonin quantity before and after ingestion of the nicotinamide mononucleotide, a test was conducted on healthy males and females aged 50 to 70 years.
As a sample of Working Example 1, a capsule formulation containing the nicotinamide mononucleotide and starch (100 mg (low dose) and 200 mg (high dose) of the nicotinamide mononucleotide in 4 capsules) (manufactured by SHINKOWA PHARMACEUTICAL Co., Ltd.) was used.
(§1) Each group consisting of five healthy males and females aged 50 to 70 years in an unbiased age group ingested the above low dose capsule formulation once a day by 4 capsules for 24 weeks (total 10 subjects, a low dose group: 100 mg/daily ingestion). On the other hand, each group consisting of five healthy males and females aged 50 to 70 years in the unbiased age group ingested the above high dose capsule formulation once a day by 4 capsules for 24 weeks (total 10 subjects, a high dose group: 200 mg/daily ingestion). In order to conduct appropriate evaluations, those who had been regularly using medical products for chronic diseases, those who had been consuming healthy foods that may affect clinical research, and those who were currently participating in other clinical researches or clinical trials, or had participated in other clinical researches or clinical trials within the last three months were excluded from the subject for the evaluation. The capsule formulations were ingested at 10 am (between meals and fasting state) together with water or lukewarm water (oral administration).
Measurement of the melatonin quantity in plasma was conducted by requesting the measurement to an external public organization according to a usual method. FIGS. 2a to 2c indicates transitions of the melatonin concentration (pg/ml) in the plasma for 24 weeks. FIG. 2a represents the transitions of the whole subjects; FIG. 2b represents the transitions of the male subjects; FIG. 2c represents the transitions of the female subjects. FIGS. 3a to 3c indicates change rates (%) of the blood melatonin concentration up to 24 weeks when the nicotinamide mononucleotide was orally administered to the subjects for 24 weeks. FIG. 3a represents the change rates of the whole subjects; FIG. 3b represents the change rates of the male subjects; FIG. 3c represents the change rates of the female subjects. Further, Table 1 indicates the numerical values of the melatonin concentration (pg/ml) in the plasma before the ingestion of the nicotinamide mononucleotide (0 weeks) and after the ingestion of the nicotinamide mononucleotide (24 weeks). In addition, the numerical values represent mean values±standard deviation.

[2] = tested on: mRNA expression level of the sirtuin gene Sirt1; test: Evaluation of sirtuin 1 (Sirt1) secretion promoting effect (blood Sirt1 mRNA by real-time PCR, 24-week oral ingestion); type: in vivo, human; details: for mRNA expression level of the sirtuin gene Sirt1 (relative to that of GAPDH), 0 weeks (before ingestion) / mRNA expression level of the sirtuin gene Sirt1 (relative to that of GAPDH), 24 weeks (after ingestion) / mRNA expression level of the sirtuin gene Sirt1 (relative to that of GAPDH), Change rate (24 weeks - 0 weeks): blood, High Dose Group (200 mg/daily, oral), mean±SD; for mRNA expression level of the sirtuin gene Sirt1 (relative to that of GAPDH), 0 weeks (before ingestion): baseline
Description: In order to confirm a change in the Sirt1 quantity before and after ingestion of the nicotinamide mononucleotide, a test was conducted on healthy males and females aged 50 to 70 years.
As a sample of Working Example 13, a capsule formulation containing the nicotinamide mononucleotide and starch (200 mg of the nicotinamide mononucleotide in 4 capsules) (manufactured by SHINKOWA PHARMACEUTICAL Co., Ltd.) was used.
as §1, with “above” for “above low dose capsule formulation once a day by 4 capsules for 24 weeks (total 10 subjects, a low dose group: 100 mg/daily ingestion). On the other hand, each group consisting of five healthy males and females aged 50 to 70 years in the unbiased age group ingested the above”, “subjects,” for “subjects, a high dose group:”, “trials” for “trials,”
Measurement of the Sirt1 quantity in the blood was conducted by requesting the measurement to an external public organization according to a usual method. The mRNA expression level of the sirtuin gene Sirt1 was analyzed by a real-time PCR method with the blood collected before the ingestion of the nicotinamide mononucleotide (0 weeks) and after the ingestion of the nicotinamide mononucleotide (24 weeks). Note that, in this analysis, cDNA was purified on the day when the blood sample was collected and stored at −80° C. until all samples were prepared. The samples were then subjected to the real-time PCR method at the same time. The expression level was normalized using GAPDH as a reference gene. Table 12 indicates the numerical values of the mRNA expression level of the sirtuin gene Sirt1 (relative to that of GAPDH). Note that the numerical values represent mean values±standard deviation.

[3] = Female, High Dose Group (200 mg/daily, oral)
[4] = Female, Low Dose Group (100 mg/daily, oral)
[5] = Male, High Dose Group (200 mg/daily, oral)
[6] = Male, Low Dose Group (100 mg/daily, oral)
[7] = Whole Subjects, High Dose Group (200 mg/daily, oral)
[8] = Whole Subjects, Low Dose Group (100 mg/daily, oral)

Q: `NC(=O)c1ccc[n+]([C@@H]2O[C@H](COP(=O)([O-])O)[C@@H](O)[C@H]2O)c1` [nicotinamide mononucleotide] was tested. Which “melatonin concentration in the plasma, 0 weeks (before ingestion)” value (“melatonin concentration … (before ingestion)” for short) [1, 3] did it give?
A: 5.77 ± 3.00 pg/mL

Q: And the “melatonin concentration in the plasma, 24 weeks (after ingestion)” value (“melatonin concentration … (after ingestion)” for short) [1, 3]?
A: 11.81 ± 8.17 pg/mL

Q: And the “melatonin concentration in the plasma, Change rate (24 weeks - 0 weeks)” value [1, 3]?
A: 6.03 ± 5.90 pg/mL

Q: What about the “melatonin concentration … (before ingestion)” value [1, 4] of the same compound?
A: 7.15 ± 4.51 pg/mL

Q: What about the “melatonin concentration … (after ingestion)” value [1, 4] of the same compound?
A: 9.37 ± 4.85 pg/mL

Q: And the “melatonin concentration in the plasma, Change rate (24 weeks - 0 weeks)” value [1, 4]?
A: 2.21 ± 3.19 pg/mL

Q: And the “melatonin concentration … (before ingestion)” value [1, 5]?
A: 3.82 ± 1.41 pg/mL

Q: What about the “melatonin concentration … (after ingestion)” value [1, 5] of the same compound?
A: 6.68 ± 4.04 pg/mL

Q: What about the “melatonin concentration in the plasma, Change rate (24 weeks - 0 weeks)” value [1, 5] of the same compound?
A: 2.86 ± 3.10 pg/mL

Q: What about the “melatonin concentration … (before ingestion)” value [1, 6] of the same compound?
A: 2.76 ± 1.71 pg/mL

Q: And the “melatonin concentration … (after ingestion)” value [1, 6]?
A: 6.20 ± 3.60 pg/mL

Q: And the “melatonin concentration in the plasma, Change rate (24 weeks - 0 weeks)” value [1, 6]?
A: 3.44 ± 3.57 pg/mL

Q: What about the “melatonin concentration … (before ingestion)” value [1, 7] of the same compound?
A: 4.80 ± 2.44 pg/mL

Q: And the “melatonin concentration in the plasma, Change rate (24 weeks - 0 weeks)” value [1, 7]?
A: 4.45 ± 4.75 pg/mL

Q: What about the “melatonin concentration … (before ingestion)” value [1, 8] of the same compound?
A: 4.96 ± 3.96 pg/mL

Q: And the “melatonin concentration … (after ingestion)” value [1, 8]?
A: 7.78 ± 4.36 pg/mL

Q: What about the “melatonin concentration in the plasma, Change rate (24 weeks - 0 weeks)” value [1, 8] of the same compound?
A: 2.82 ± 3.26 pg/mL

Q: What about the “melatonin concentrations in the plasma compared to before ingestion, statistical significance” value ([1]; as a whole, both the low dose group and the high dose group, p<0.05) of the same compound?
A: a significant difference was observed

Q: What about the “melatonin concentrations in plasma, effect of ingestion (in words)” value ([1]; oral, 100 or 200 mg/daily, 24 weeks, FIGS. 2a-2c, 3a-3c) of the same compound?
A: increased

Q: And the “mRNA expression level of the sirtuin gene Sirt1 (relative to that of GAPDH), 0 weeks (before ingestion)” value ([2]; Female)?
A: 1.01 ± 0.17

Q: And the “mRNA expression level of the sirtuin gene Sirt1 (relative to that of GAPDH), 24 weeks (after ingestion)” value ([2]; Female)?
A: 1.72 ± 0.98

Q: And the “mRNA expression level of the sirtuin gene Sirt1 (relative to that of GAPDH), Change rate (24 weeks - 0 weeks)” value ([2]; Female)?
A: 1.70 ± 0.90

Q: What about the “mRNA expression level of the sirtuin gene Sirt1 (relative to that of GAPDH), 0 weeks (before ingestion)” value ([2]; Male) of the same compound?
A: 1.65 ± 0.99

Q: And the “mRNA expression level of the sirtuin gene Sirt1 (relative to that of GAPDH), 24 weeks (after ingestion)” value ([2]; Male)?
A: 3.69 ± 2.82

Q: And the “mRNA expression level of the sirtuin gene Sirt1 (relative to that of GAPDH), Change rate (24 weeks - 0 weeks)” value ([2]; Male)?
A: 4.67 ± 5.13

Q: And the “mRNA expression level of the sirtuin gene Sirt1 (relative to that of GAPDH), 0 weeks (before ingestion)” value ([2]; Whole Subjects)?
A: 1.33 ± 0.75

Q: What about the “mRNA expression level of the sirtuin gene Sirt1 (relative to that of GAPDH), 24 weeks (after ingestion)” value ([2]; Whole Subjects) of the same compound?
A: 2.71 ± 2.25

Q: And the “mRNA expression level of the sirtuin gene Sirt1 (relative to that of GAPDH), Change rate (24 weeks - 0 weeks)” value ([2]; Whole Subjects)?
A: 3.18 ± 3.81

Q: What about the “expression level of Sirt1 in the blood, effect of ingestion (in words)” value ([2]; oral, 200 mg/daily, 24 weeks) of the same compound?
A: increased
